Assay results published in patent US6143492A, “Optical molecular sensors for cytochrome P450 activity” (Aurora Biosciences Corporation, priority 1999, dated 2000).

What was measured:
CYP 3A4 = biological target: T1, CYP 3A4 (Homo sapiens, UniProt P08684); assay: Kinetics of fluorogenic substrates with CYP 3A4; assay type: biochemical; details: for type of kinetics / kcat / kcat/Km / conversion to the same fluorescent product vs the most closely structurally-related substrate: CYP 3A4; for v (1.25 uM), turnover rate at 1.25 μM: CYP 3A4, substrate 1.25 uM; for v (10 uM), turnover rate at 10 μM: CYP 3A4, substrate 10 uM
T1 construct: NADPH regenerating system
T1 sequence (P08684 whole entry): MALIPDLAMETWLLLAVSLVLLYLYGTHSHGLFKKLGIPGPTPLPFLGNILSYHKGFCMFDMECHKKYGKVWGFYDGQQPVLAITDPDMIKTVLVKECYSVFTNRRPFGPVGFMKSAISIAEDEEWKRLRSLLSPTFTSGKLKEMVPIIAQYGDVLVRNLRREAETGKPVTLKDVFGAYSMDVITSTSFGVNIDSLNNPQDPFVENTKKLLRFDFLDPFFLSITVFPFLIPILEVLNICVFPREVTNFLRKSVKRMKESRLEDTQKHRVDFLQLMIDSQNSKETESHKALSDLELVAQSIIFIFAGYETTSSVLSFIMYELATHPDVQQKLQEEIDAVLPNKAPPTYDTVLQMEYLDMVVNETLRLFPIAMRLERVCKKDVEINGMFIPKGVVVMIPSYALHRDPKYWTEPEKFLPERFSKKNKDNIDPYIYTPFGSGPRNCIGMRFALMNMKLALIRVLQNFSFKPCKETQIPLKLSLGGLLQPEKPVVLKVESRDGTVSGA
Text: Whichever of the four abstractable hydrogen atoms (designated H^1 and H^2 in this representation of BOMR) is removed in the initial reaction step, with reference to Reaction Scheme 1 of FIG. 1, the hydroxylation product will spontaneously decompose to the free resorufin dye. In addition, the benzyloxy group, attached to the carbon carrying the two hydrogens designated H^2, contributes an inductive electronic effect on that carbon, which can stabilize the radical formed during abstraction of one of the H^2 hydrogens by a cytochrome P450.
Optimization of assay conditions was, and is preferably, accomplished through statistically validated Design of Experiments methodologies, using the commercial software package "Design-Expert®" produced by Stat-Ease® Inc. The data shown in FIGS. 4 and 5 were obtained with initial optimization.
For further understanding these terms in the context of this invention, attention is directed to FIG. 4 and the analysis of FIG. 4.

CYP 2C19 = CYP 2C19 (Homo sapiens, UniProt P33261); assay: Kinetics of fluorogenic substrates with CYP 2C19; assay type: biochemical; details: for v (1.25 uM), turnover rate at 1.25 μM: CYP 2C19, substrate 1.25 uM; for v (10 uM), turnover rate at 10 μM: CYP 2C19, substrate 10 uM
Sequence of CYP 2C19 (P33261 whole entry): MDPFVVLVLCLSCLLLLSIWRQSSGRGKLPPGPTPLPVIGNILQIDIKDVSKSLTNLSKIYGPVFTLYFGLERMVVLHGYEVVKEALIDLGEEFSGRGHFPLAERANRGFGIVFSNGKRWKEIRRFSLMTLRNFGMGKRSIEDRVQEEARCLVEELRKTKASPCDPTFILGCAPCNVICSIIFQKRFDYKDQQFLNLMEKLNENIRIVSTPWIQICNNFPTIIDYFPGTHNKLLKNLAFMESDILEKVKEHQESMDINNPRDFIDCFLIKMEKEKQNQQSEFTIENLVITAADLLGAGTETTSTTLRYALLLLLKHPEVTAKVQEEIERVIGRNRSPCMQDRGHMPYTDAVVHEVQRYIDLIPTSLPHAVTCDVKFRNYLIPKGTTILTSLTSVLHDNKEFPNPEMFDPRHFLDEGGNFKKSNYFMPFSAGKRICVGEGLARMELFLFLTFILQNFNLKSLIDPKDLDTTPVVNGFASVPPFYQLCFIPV

CYP 2C9 = CYP 2C9 (Homo sapiens, UniProt P11712); assay: Kinetics of fluorogenic substrates with CYP 2C9; assay type: biochemical; details: for v (1.25 uM), turnover rate at 1.25 μM: CYP 2C9, substrate 1.25 uM; for v (10 uM), turnover rate at 10 μM: CYP 2C9, substrate 10 uM
Sequence of CYP 2C9 (P11712 whole entry): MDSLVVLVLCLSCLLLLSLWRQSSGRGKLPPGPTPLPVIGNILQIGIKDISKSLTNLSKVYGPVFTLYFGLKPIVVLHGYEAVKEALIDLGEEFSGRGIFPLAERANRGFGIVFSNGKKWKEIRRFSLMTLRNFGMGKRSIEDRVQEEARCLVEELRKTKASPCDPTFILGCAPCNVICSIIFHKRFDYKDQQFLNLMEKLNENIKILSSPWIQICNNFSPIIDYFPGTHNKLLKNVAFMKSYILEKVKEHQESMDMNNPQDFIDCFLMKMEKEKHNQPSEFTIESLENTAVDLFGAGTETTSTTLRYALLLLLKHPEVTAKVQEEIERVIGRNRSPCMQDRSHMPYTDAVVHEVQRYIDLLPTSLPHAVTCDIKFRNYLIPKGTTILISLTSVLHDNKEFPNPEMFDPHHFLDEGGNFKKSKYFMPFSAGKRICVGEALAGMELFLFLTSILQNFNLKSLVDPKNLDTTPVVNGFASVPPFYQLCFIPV

CYP 2B6 = biological target: T2, CYP 2B6 (Homo sapiens, UniProt P20813)
T2 sequence (P20813 1-491): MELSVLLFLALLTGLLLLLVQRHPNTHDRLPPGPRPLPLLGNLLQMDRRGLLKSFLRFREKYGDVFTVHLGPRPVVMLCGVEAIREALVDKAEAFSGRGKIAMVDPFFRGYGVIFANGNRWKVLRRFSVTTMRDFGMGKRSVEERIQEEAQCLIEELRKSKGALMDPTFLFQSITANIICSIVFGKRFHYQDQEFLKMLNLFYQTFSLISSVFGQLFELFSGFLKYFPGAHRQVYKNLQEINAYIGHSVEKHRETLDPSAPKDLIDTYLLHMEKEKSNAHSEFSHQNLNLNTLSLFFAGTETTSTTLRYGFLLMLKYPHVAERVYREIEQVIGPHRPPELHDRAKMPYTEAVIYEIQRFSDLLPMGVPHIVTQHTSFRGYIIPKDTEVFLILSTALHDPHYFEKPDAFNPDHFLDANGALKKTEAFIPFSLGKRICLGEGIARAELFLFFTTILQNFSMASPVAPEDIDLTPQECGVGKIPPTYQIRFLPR

| Compound | type of kinetics (CYP 3A4) | v (1.25 uM), turnover rate at 1.25 μM (CYP 3A4) [min⁻¹] | v (10 uM), turnover rate at 10 μM (CYP 3A4) [min⁻¹] | kcat (CYP 2C19; CYP 2C19) [min⁻¹] | kcat/Km (CYP 2C19; CYP 2C19) [s⁻¹ M⁻¹] | v (1.25 uM), turnover rate at 1.25 μM (CYP 2C19) [min⁻¹] | v (10 uM), turnover rate at 10 μM (CYP 2C19) [min⁻¹] | v (1.25 uM), turnover rate at 1.25 μM (CYP 2C9) [min⁻¹] | v (10 uM), turnover rate at 10 μM (CYP 2C9) [min⁻¹] | kcat (CYP 3A4) [min⁻¹] | kcat/Km (CYP 3A4) [s⁻¹ M⁻¹] | also measured |
| --- | --- | --- | --- | --- | --- | --- | --- | --- | --- | --- | --- | --- |
| O=c1cc(C(F)(F)F)c2ccc(OCc3ccccc3)cc2o1 [BFC, 7-Benzyloxy-4-trifluoromethylcoumarin, reference compound] | linear | 0.04 | 0.81 | – | – | – | – | – | – | – | – | – |
| COCOc1ccc2cc(C#N)c(=O)oc2c1 [MOMCC] | – | – | – | 0.5 | 2604 | 0.14 | 0.38 | 0.01 | 0.07 | – | – | conversion to the same fluorescent product vs the most closely structurally-related substrate (CYP 2C19; CYP 2C19): more efficient conversion; type of kinetics (CYP 2C19; CYP 2C19): Michaelis-; conversion to the same fluorescent product vs the most closely structurally-related substrate (CYP 2C9; CYP 2C9): more efficient conversion; kcat (CYP 2C9; CYP 2C9): 0.2 min⁻¹; kcat/Km (CYP 2C9; CYP 2C9): 167 s⁻¹ M⁻¹; type of kinetics (CYP 2C9; CYP 2C9): Michaelis |
| CC1(C)C2=C(Cl)C(=O)C(Cl)=CC2=Nc2ccc(OCOCc3ccccc3)cc21 [BOMDDAO] | – | 0.4402 | 4.2041 | – | – | – | – | – | – | 6 | 14286 | – |
| CCOCOc1ccc2nc3ccc(=O)cc-3oc2c1 [EOMR] | Michaelis- | 0.03 | 0.10 | – | – | – | – | – | – | 0.1 | – | conversion to the same fluorescent product vs the most closely structurally-related substrate (CYP 3A4): more efficient conversion |
| O=c1ccc2nc3ccc(OCOCc4ccccc4)cc3oc-2c1 [BOMR, Benzyloxymethylresorufin] | Michaelis- | 0.55 | 0.88 | – | – | – | – | – | – | 1.1 | 13095 | conversion to the same fluorescent product vs the most closely structurally-related substrate (CYP 2B6): more efficient conversion; kcat (CYP 2B6): 0.8 min⁻¹; kcat/Km (CYP 2B6): 18265 s⁻¹ M⁻¹; type of kinetics (CYP 2B6): Michaelis-; v (1.25 uM), turnover rate at 1.25 μM (CYP 2B6): 0.28 min⁻¹; v (10 uM), turnover rate at 10 μM (CYP 2B6): 0.71 min⁻¹; conversion to the same fluorescent product vs the most closely structurally-related substrate (CYP 3A4): more efficient conversion; turnover rate (kcat) (CYP 3A4; CYP 3A4, FIG. 4 data): 0.5 s⁻¹; CYP 3A4 turnover rate of BOMR relative to BR (CYP 3A4; FIG. 4 data): approximately five times greater; enzymatic efficiency (kcat /Km) of CYP 3A4 towards BOMR relative to BR (CYP 3A4; FIG. 4 data): 14 times |
| CCCCCCCCOCOc1ccc2cc(C#N)c(=O)oc2c1 [OOMCC] | – | 0.2274 | 0.981 | 1.7 | 4106 | 0.179 | 1.043 | – | – | 1.19 | 4506 | – |
| O=C(OCc1ccccc1)c1c2oc3cc(OCc4ccccc4)ccc3nc-2ccc1=O [BRCBE] | – | 0.1992 | 0.6241 | – | – | – | – | – | – | 0.83 | 5123 | – |
| O=c1cc(C(F)(F)F)c2ccc(OCOCc3ccccc3)cc2o1 [BOMFC] | Michaelis- | 0.11 | 1.41 | – | – | – | – | – | – | 4.0 | – | conversion to the same fluorescent product vs the most closely structurally-related substrate (CYP 3A4): more efficient conversion |
| COc1ccc2cc(C#N)c(=O)oc2c1 [3CMC, 3-cyano-7-methoxycoumarin, reference compound] | – | – | – | – | – | 0.01 | 0.07 | 0.00 | 0.04 | – | – | type of kinetics (CYP 2C19; CYP 2C19): linear; kcat (CYP 2C9; CYP 2C9): 0.4 min⁻¹; kcat/Km (CYP 2C9; CYP 2C9): 85 s⁻¹ M⁻¹; type of kinetics (CYP 2C9; CYP 2C9): linear |
| N#Cc1cc2ccc(OCc3ccccc3)cc2oc1=O [BCC, 7-Benzyloxy-3-cyanocoumarin, reference compound] | – | – | – | 0.1 | 234 | 0.02 | 0.06 | 0.00 | 0.00 | – | – | kcat (CYP 2B6): 0.1 min⁻¹; kcat/Km (CYP 2B6): 1064 s⁻¹ M⁻¹; type of kinetics (CYP 2B6): Michaelis-; v (1.25 uM), turnover rate at 1.25 μM (CYP 2B6): 0.04 min⁻¹; v (10 uM), turnover rate at 10 μM (CYP 2B6): 0.07 min⁻¹; type of kinetics (CYP 2C19; CYP 2C19): Michaelis- |
| CCN(CC)Cc1cc(=O)oc2cc(OC)ccc12 [DMMC] | – | – | – | 0.4 | 784 | 0.03 | 0.23 | – | – | – | – | – |
| CCCCCCCCOCOc1ccc2nc3ccc(=O)cc-3oc2c1 [OOMR, Octyloxymethylresorufin] | – | 0.323 | 0.601 | 0.17 | 4048 | 0.1 | 0.13 | 0.137 | 0.31 | 0.66 | 7857 | kcat (CYP 2C9; CYP 2C9): 0.4 min⁻¹; kcat/Km (CYP 2C9; CYP 2C9): 2564 s⁻¹ M⁻¹ |
